Assay results published in patent publication US10695337B2, “Piperidin-4-yl azetidine derivatives as JAK1 inhibitors” (Incyte Corporation, priority 2010, dated 2020).

What was measured:
Assay type in all cases: biochemical
[1] = target: human JAK1 (a.a. 837-1142); assay: In vitro JAK kinase assay (HTRF, phosphorylation of a biotinylated peptide), JAK1; settings: measured at 1 mM ATP; JAK2 IC50 / JAK1 IC50
In short: (§1)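 N-terminally His-tagged catalytic domains, baculovirus-expressed in insect cells and purified, were used as enzyme. Reactions ran 1 hr at room temperature and were stopped with a mix of 45 mM EDTA, 300 nM SA-APC and 6 nM Eu-Py20. The HTRF signal was read after 40 min of antibody binding.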

[2] = target: human Jak2 (a.a. 828-1132) (Homo sapiens (Human), UniProt O60674); assay: In vitro JAK kinase assay (HTRF, phosphorylation of a biotinylated peptide), JAK2; settings: measured at 1 mM ATP
Sequence of human Jak2 (a.a. 828-1132) (O60674 828-1132): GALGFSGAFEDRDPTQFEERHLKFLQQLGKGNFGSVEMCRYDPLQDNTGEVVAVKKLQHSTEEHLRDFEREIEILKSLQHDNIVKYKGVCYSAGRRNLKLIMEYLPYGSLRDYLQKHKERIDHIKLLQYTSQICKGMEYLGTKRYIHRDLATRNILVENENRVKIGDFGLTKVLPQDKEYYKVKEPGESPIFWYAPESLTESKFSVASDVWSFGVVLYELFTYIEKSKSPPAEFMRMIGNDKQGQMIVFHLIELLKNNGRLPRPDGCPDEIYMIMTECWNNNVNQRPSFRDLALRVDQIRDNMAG
Method: Compounds herein were tested for inhibitory activity of JAK targets according to the following in vitro assay described in Park et al., Analytical Biochemistry 1999, 269, 94-104. The catalytic domains of human JAK1 (a.a. 837-1142), Jak2 (a.a. 828-1132) and Jak3 (a.a. 781-1124) with an N-terminal His tag were expressed using baculovirus in insect cells and purified. The catalytic activity of JAK1, JAK2 or JAK3 was assayed by measuring the phosphorylation of a biotinylated peptide. The phosphorylated peptide was detected by homogenous time resolved fluorescence (HTRF). […] Reactions were carried out at room temperature for 1 hr and then stopped with 20 μL 45 mM EDTA, 300 nM SA-APC, 6 nM Eu-Py20 in assay buffer (Perkin Elmer, Boston, Mass.). Binding to the Europium labeled antibody took place for 40 minutes and HTRF signal was measured on a Fusion plate reader (Perkin Elmer, Boston, Mass.).

[3] = target: human JAK1 (a.a. 837-1142) (Homo sapiens, UniProt P23458); assay: In vitro JAK kinase assay (HTRF, phosphorylation of a biotinylated peptide), JAK1; settings: measured at 1 mM ATP
In short: as §1

Structure (SMILES) | IC50 Ratio JAK2/JAK1 [1] | IC50 [2] | IC50 [3]
CC1CC(N2CC(CC#N)(n3cc(-c4ncnc5[nH]ccc45)cn3)C2)CCN1C(=O)c1cccc(F)c1 (single isomer, unassigned) [Example 149, {1-[1-(3-fluorobenzoyl)-2-methylpiperidin-4-yl]-3-[4-(7H-pyrrolo[2,3-d]pyrimidin-4-yl)-1H-pyrazol-1-yl]azetidin-3-yl}acetonitrile] | 5.0 | 10 to 50 nM | –
N#CCC1(n2cc(-c3ncnc4[nH]ccc34)cn2)CN(C2CCN(C(=O)c3ccc(-c4cccc5cccnc45)c(F)c3)CC2)C1 [Example 132, {1-[1-(3-fluoro-4-quinolin-8-ylbenzoyl)piperidin-4-yl]-3-[4-(7H-pyrrolo[2,3-d]pyrimidin-4-yl)-1H-pyrazol-1-yl]azetidin-3-yl} acetonitrile] | 5.8 | – | ≤ 5 nM

More lines, now with the values ahead:

IC50 Ratio JAK2/JAK1 [1] | IC50 [2] | IC50 [3] | Structure (SMILES)
7.0 | ≤ 10 nM | – | CC1CC(N2CC(CC#N)(n3cc(-c4ncnc5[nH]ccc45)cn3)C2)CCN1C(=O)c1cccc(F)c1 (single isomer, unassigned) [Example 150, {1-[1-(3-fluorobenzoyl)-2-methylpiperidin-4-yl]-3-[4-(7H-pyrrolo[2,3-d]pyrimidin-4-yl)-1H-pyrazol-1-yl]azetidin-3-yl}acetonitrile]
8.3 | 10 to 50 nM | ≤ 5 nM | CC1CC(N2CC(CC#N)(n3cc(-c4ncnc5[nH]ccc45)cn3)C2)CCN1Cc1ccc(N(C)C)c(C#N)c1F (single isomer, unassigned) [Example 242, 3-[(4-{3-(cyanomethyl)-3-[4-(7H-pyrrolo[2,3-d]pyrimidin-4-yl)-1H-pyrazol-1-yl]azetidin-1-yl}-2-methylpiperidin-1-yl)methyl]-6-(dimethylamino)-2-fluorobenzonitrile]
6.4 | > 100 nM | 20 to 30 nM | CC1CC(N2CC(CC#N)(n3cc(-c4ncnc5[nH]ccc45)cn3)C2)CCN1Cc1ccc(N(C)C)c(C#N)c1F (single isomer, unassigned) [Example 243, 3-[(4-{3-(cyanomethyl)-3-[4-(7H-pyrrolo[2,3-d]pyrimidin-4-yl)-1H-pyrazol-1-yl]azetidin-1-yl}-2-methylpiperidin-1-yl)methyl]-6-(dimethylamino)-2-fluorobenzonitrile]
